Data published in patent USRE44768E1, “Rapamycin hydroxyesters” (Wyeth LLC, priority 1994, dated 2014).
Where “and” joins values, the source holds several entries; their conditions need not be identical. Identical values can stand only once. Like-named read-outs stand apart in the source and are kept apart here.

Columns and labels:
[1] = test system: adjuvant arthritis (uninjected hind paw, T-cell mediated inflammation); assay: adjuvant arthritis standard pharmacological test procedure; format: in vivo, male inbread Wistar Lewis rats; details: uninjected paw at day 16 versus control; oral dose of 5 mg/kg
Protocol: The adjuvant arthritis standard pharmacological test procedure measures the ability of test compounds to prevent immune mediated inflammation and inhibit or treat rheumatoid arthritis. The following briefly describes the test procedure used. A group of rats (male inbread Wistar Lewis rats) are pre-treated with the compound to be tested (1 h prior to antigen) and then injected with Freud's Complete Adjuvant (FCA) in the right hind paw to induce arthritis. The rats are then orally dosed on a Monday, Wednesday, Friday schedule from day 0-14 for […]. Both hind paws are measured on days 16, 23, and 30. The difference in paw volume (mL) from day 16 to day 0 is determined and a percent change from control is obtained. […] The right hind paw inflammation, on the other hand, is caused by non-specific inflammation. Compounds were tested at a dose of 5 mg/kg.

[2] = test system: cells from the thymus of normal BALB/c mice; assay: comitogen-induced thymocyte proliferation procedure (LAF); details: for LAF ratio: ratio compared with rapamycin, greater than 1 = inhibited thymocyte proliferation to a greater extent than rapamycin; for IC50: read-out: LAF IC50
Protocol: Cells are cultured with and without various concentrations of rapamycin, cyclosporin A, or test compound. Cells are harvested and incorporated radio-activity is determined. Inhibition of lymphoproliferation is assessed as percent change in counts per minute from nondrug treated controls. For each compound evaluated, rapamycin was also evaluated for the purpose of comparison. An IC50 was obtained for each test compound as well as for rapamycin. […] The results obtained are provided as an IC50 and as the percent inhibition of T-cell proliferation at 0.1 μM. […] A positive ratio indicates immunosuppressive activity.

[3] = test system: pinch skin graft from male BALB/c donors transplanted to male C3H(H-2K) recipients; assay: pinch skin graft survival test procedure; format: in vivo; details: mean graft survival time ± S.D., dose of 4 mg/kg
Protocol: Representative compounds of this invention were also evaluated in an in vivo test procedure designed to determine the survival time of pinch skin graft from male BALB/c donors transplanted to male C3H(H-2K) recipients. The method is adapted from Billingham R. E. and Medawar P. B., J. Exp. Biol. 28:385-402, (1951). Briefly, as pinch skin graft from the donor was grafted on the dorsum of the recipient as a allograft, and an isograft was used as control in the same region. The recipients were treated with either varying concentrations of test compounds intraperitoneally or orally. Rapamycin was used as a test control. Untreated recipients serve as rejection control. The graft was monitored daily and observations were recorded until the graft became dry and formed a blackened scab. This was considered as the rejection day. The mean graft survival time (number of days±S.D.) of the drug treatment group was compared with the control group. […] Results are expressed as the mean survival time in days. Untreated (control) pinch skin grafts are usually rejected within 6-7 days. Compounds were tested using a dose of 4 mg/kg.

[4] = thymocytes cultured 72 hours with PHA and IL-1, tritiated thymidine incorporation

CO[C@H]1C[C@@H]2CC[C@@H](C)[C@@](O)(O2)C(=O)C(=O)N2CCCC[C@H]2C(=O)O[C@H]([C@H](C)C[C@@H]2CC[C@@H](OC(=O)CO)[C@H](OC)C2)CC(=O)[C@H](C)/C=C(\C)[C@@H](O)[C@@H](OC)C(=O)[C@H](C)C[C@H](C)/C=C/C=C/C=C/1C [Example 2, Rapamycin 42-ester with hydroxyacetic acid]
Percent change in adjuvant arthritis versus control [1]: −88%
LAF ratio [2]: 0.83
IC50 [2, 4]: 1.8 nM

COC1CC2CCC(C)C(O)(O2)C(=O)C(=O)N2CCCCC2C(=O)OC(C(C)CC2CCC(OC(=O)C(C)(C)COC3CCCCO3)C(OC)C2)CC(=O)C(C)C=C(C)C(O)C(OC)C(=O)C(C)CC(C)C=CC=CC=C1C (centres unmarked) [Example 3, Rapamycin 42-ester with 2,2-dimethyl-3-(tetrahydropyran-2-yloxy)propionic acid]
LAF ratio [2]: 0.34
IC50 [2, 4]: 7.1 nM

CO[C@H]1C[C@@H]2CC[C@@H](C)[C@@](O)(O2)C(=O)C(=O)N2CCCC[C@H]2C(=O)O[C@H]([C@H](C)C[C@@H]2CC[C@@H](OC(=O)C(C)(C)CO)[C@H](OC)C2)CC(=O)[C@H](C)/C=C(\C)[C@@H](O)[C@@H](OC)C(=O)[C@H](C)C[C@H](C)/C=C/C=C/C=C/1C [Example 4, Rapamycin 42-ester with 3-hydroxy-2,2-dimethylpropionic acid]
Skin graft survival time [3]: 10.7 ± 0.5 days
LAF ratio [2]: 1.25
IC50 [2, 4]: 0.8 nM

COC1CC2CCC(C)C(O)(O2)C(=O)C(=O)N2CCCCC2C(=O)OC(C(C)CC2CCC(OC(=O)C3COC(C)(C)O3)C(OC)C2)CC(=O)C(C)C=C(C)C(O)C(OC)C(=O)C(C)CC(C)C=CC=CC=C1C (centres unmarked) [Example 5, Rapamycin 42-ester with 2,2-dimethyl[1,3]dioxalane-4-carboxylic acid]
LAF ratio [2]: 0.74
IC50 [2, 4]: 1.2 nM

COC1CC2CCC(C)C(O)(O2)C(=O)C(=O)N2CCCCC2C(=O)OC(C(C)CC2CCC(OC(=O)C3COC(C)(C)O3)C(OC)C2)CC(=O)C(C)C=C(C)C(OC(=O)C2COC(C)(C)O2)C(OC)C(=O)C(C)CC(C)C=CC=CC=C1C (centres unmarked) [Example 6, Rapamycin 31,42-diester with 2,2-dimethyl[1,3]dioxalane-4-carboxylic acid]
LAF ratio [2]: 0.5
IC50 [2, 4]: 1.3 nM

COC1CC2CCC(C)C(O)(O2)C(=O)C(=O)N2CCCCC2C(=O)OC(C(C)CC2CCC(OC(=O)C3COC(C)(C)OC3)C(OC)C2)CC(=O)C(C)C=C(C)C(O)C(OC)C(=O)C(C)CC(C)C=CC=CC=C1C (centres unmarked) [Example 8]
LAF ratio [2]: 0.45
IC50 [2, 4]: 0.76 nM

COC1CC2CCC(C)C(O)(O2)C(=O)C(=O)N2CCCCC2C(=O)OC(C(C)CC2CCC(OC(=O)C(CO)CO)C(OC)C2)CC(=O)C(C)C=C(C)C(O)C(OC)C(=O)C(C)CC(C)C=CC=CC=C1C (centres unmarked) [Example 9, Rapamycin 42-ester with 3-hydroxy-2-hydroxymethylpropionic acid]
LAF ratio [2]: 0.57
IC50 [2, 4]: 0.84 nM

CO[C@H]1C[C@@H]2CC[C@@H](C)[C@@](O)(O2)C(=O)C(=O)N2CCCC[C@H]2C(=O)O[C@H]([C@H](C)C[C@@H]2CC[C@@H](OC(=O)C3(C)COC(C)(C)OC3)[C@H](OC)C2)CC(=O)[C@H](C)/C=C(\C)[C@@H](O)[C@@H](OC)C(=O)[C@H](C)C[C@H](C)/C=C/C=C/C=C/1C [Example 10]
Skin graft survival time [3]: 11.0 ± 1.3 days
LAF ratio [2]: 0.41
IC50 [2, 4]: 4.9 nM

CO[C@H]1CC2CC[C@@H](C)[C@@](O)(O2)C(=O)C(=O)N2CCCC[C@H]2C(=O)O[C@H]([C@H](C)C[C@@H]2CC[C@@H](OC(=O)C(C)(CO)CO)[C@H](OC)C2)CC(=O)[C@H](C)/C=C(\C)[C@@H](O)[C@@H](OC)C(=O)[C@H](C)C[C@H](C)/C=C/C=C/C=C/1C [Example 11, Rapamycin 42-ester with 2,2-bis-(hydroxymethyl)propionic acid]
Skin graft survival time ([3]; 4 mg/kg): 11.4 ± 1.5 days and 12.0 ± 1.1 days
Percent change in adjuvant arthritis versus control [1]: < 88%

COC1CC2CCC(C)C(O)(O2)C(=O)C(=O)N2CCCCC2C(=O)OC(C(C)CC2CCC(OC(=O)C3(C)COC4(CCCCC4)OC3)C(OC)C2)CC(=O)C(C)C=C(C)C(O)C(OC)C(=O)C(C)CC(C)C=CC=CC=C1C (centres unmarked) [Example 13, Rapamycin 42-ester with 3-methyl-1,5-dioxa-spiro[5.5]undecane 3-carboxylic acid]
LAF ratio [2]: 2.00
IC50 [2, 4]: 0.6 nM

COC1CC2CCC(C)C(O)(O2)C(=O)C(=O)N2CCCCC2C(=O)OC(C(C)CC2CCC(OC(=O)C3(C)COC4(CCCCC4)OC3)C(OC)C2)CC(=O)C(C)C=C(C)C(OC(=O)C2(C)COC3(CCCCC3)OC2)C(OC)C(=O)C(C)CC(C)C=CC=CC=C1C (centres unmarked) [Example 14, Rapamycin 31.42-diester with 3-methyl-1.5-dioxa-spiro[5.5]undecane 3-carboxylic acid]
percent inhibition of T-cell proliferation ([2]; at 0.1 μM): 43%

CO[C@H]1C[C@@H]2CC[C@@H](C)[C@@](O)(O2)C(=O)C(=O)N2CCCC[C@H]2C(=O)O[C@H]([C@H](C)C[C@@H]2CC[C@@H](O)[C@H](OC)C2)CC(=O)[C@H](C)/C=C(\C)[C@@H](O)[C@@H](OC)C(=O)[C@H](C)C[C@H](C)/C=C/C=C/C=C/1C [rapamycin, Rapamycin]
IC50 ([2]; Mus musculus, Thymocyte, 72 h): 0.6 to 1.5 nM

Rapamycin 42-ester with 2,2-dimethyl-5-(2-trimethylsilanylethoxymethyl)[1,3]dioxane-5-carboxylic acid [Example 12]
LAF ratio [2]: 0.05
IC50 [2, 4]: 7.2 nM

Rapamycin 42-ester with 2,3-dihydroxypropionic acid [Example 7]
LAF ratio [2]: 0.40
IC50 [2, 4]: 1.4 nM
